Measurements published in paper PMC3880596 (Journal of medicinal chemistry, 2013).

Columns and labels:
[1] = system: P. falciparum Indochina W2 clone; assay: microbe, parasite or virus in culture; format: cell-based, Plasmodium falciparum
[2] = in vitro; details: mouse, microsomes, pH 7.4
[3] = in vitro; details: human, microsomes, pH 7.4
[4] = biological target: T1, recombinant BoNT/A LC (Clostridium botulinum, UniProt P0DPI0); assay: biochemical; details: read-out: BoNT/A LC inhibition
[5] = system: P. falciparum multidrug resistant C235 strain (Thailand); assay: microbe, parasite or virus in culture; format: cell-based, Plasmodium falciparum
[6] = system: P. falciparum African D6 clone; assay: microbe, parasite or virus in culture; format: cell-based, Plasmodium falciparum; details: for IC50: Plasmodium falciparum, D6, read-out: antimalarial activity IC50, CQS D6
[7] = biological target: T1, recombinant BoNT/A LC; details: cited from earlier work

T1 sequence (P0DPI0 2-448 limits assumed): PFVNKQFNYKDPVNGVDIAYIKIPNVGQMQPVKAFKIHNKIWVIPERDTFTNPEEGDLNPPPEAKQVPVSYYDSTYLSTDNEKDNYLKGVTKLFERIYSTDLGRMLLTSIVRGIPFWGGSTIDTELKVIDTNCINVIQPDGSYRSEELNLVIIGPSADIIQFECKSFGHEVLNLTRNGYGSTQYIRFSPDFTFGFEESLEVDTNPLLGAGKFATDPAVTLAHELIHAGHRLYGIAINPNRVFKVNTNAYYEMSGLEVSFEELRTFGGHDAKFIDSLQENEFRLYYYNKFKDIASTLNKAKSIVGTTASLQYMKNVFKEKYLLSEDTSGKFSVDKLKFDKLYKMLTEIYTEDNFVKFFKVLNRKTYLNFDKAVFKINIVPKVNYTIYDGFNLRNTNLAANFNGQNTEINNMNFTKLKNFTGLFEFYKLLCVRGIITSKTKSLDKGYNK

SMILES	selectivity index (IC50), SI = ICtox/ICP.f. activity, W2 [1]	selectivity index (IC50), SI = ICtox/ICP.f. activity, TM91C235 [5]	selectivity index (IC50), SI = ICtox/ICP.f. activity, D6 [6]	further results
Clc1ccc2c(NCCCNCc3ccccc3)ccnc2c1 [compound 7, N-Benzyl-N'-(7-chloroquinolin-4-yl)propane-1,3-diamine]	56/169/73	56/169/73	56/169/73	half-life [2]: ≥ 1 h; half-life [3]: ≥ 1 h; inhibition at 20 µM [4]: > 50%
CCN(CC)CCCC(C)Nc1ccnc2cc(Cl)ccc12.O=P(O)(O)O.O=P(O)(O)O (centres unmarked) [CQ, chloroquine, reference compound]	–	–	–	IC50 ([1]; Plasmodium falciparum, W2, read-out: antimalarial activity IC50, CQR W2): 634 nM; IC50 ([5]; Plasmodium falciparum, read-out: antimalarial activity IC50, MDR TM91C235): 226 nM; BoNT/A LC inhibition (in words) [7]: poor BoNT/A LC inhibitors; IC50 [6]: 14.2 nM
Clc1ccc2c(NCCNCc3cnccc3Cl)ccnc2c1 [compound 20, N-[(4-Chloropyridin-3-yl)methyl]-N'-(7-chloroquinolin-4-yl)ethane-1,2-diamine]	46/102/78	46/102/78	46/102/78	–
CC(C)(C)c1ccc(CNCCCNc2ccnc3cc(Cl)ccc23)cc1 [compound 9, N-(4-Tert-butylbenzyl)-N'-(7-chloroquinolin-4-yl)propane-1,3-diamine]	45/100/68	45/100/68	45/100/68	–
Fc1ccc(CNCCNc2ccnc3cc(Cl)ccc23)cc1 [compound 12, N-(7-Chloroquinolin-4-yl)-N'-(4-fluorobenzyl)ethane-1,2-diamine]	350/608/291	350/608/291	350/608/291	–
CCN(CC)Cc1cc(Nc2ccnc3cc(Cl)ccc23)ccc1O [Amodiaquine]	–	–	–	BoNT/A LC inhibition (in words) [7]: poor inhibitors
NCCCNc1ccnc2cc(Cl)ccc12 [compound 5, N1-(7-chloroquinolin-4-yl)propane-1,3-diamine]	–	–	–	BoNT/A LC inhibition (in words), tested as fragments [7]: poor BoNT/A LC inhibitors
Clc1ccc2c(NCCNCc3ccncc3)ccnc2c1 [compound 16, N-(7-Chloroquinolin-4-yl)-N'-(pyridin-4-ylmethyl)ethane-1,2-diamine]	409/2528/752	409/2528/752	409/2528/752	–
COc1ccc(CNCCNc2ccnc3cc(Cl)ccc23)cc1 [compound 10, N-(7-Chloroquinolin-4-yl)-N'-(4-methoxybenzyl)ethane-1,2-diamine]	406/1806/362	406/1806/362	406/1806/362	–
Clc1ccc2c(NCCCNCc3cnccc3Cl)ccnc2c1 [compound 21, N-[(4-Chloropyridin-3-yl)methyl]-N'-(7-chloroquinolin-4-yl)propane-1,3-diamine]	52/146/121	52/146/121	52/146/121	–
Clc1ccc2c(NCCCNCc3cccnc3)ccnc2c1 [compound 19, N-(7-Chloroquinolin-4-yl)-N'-(pyridin-3-ylmethyl)propane-1,3-diamine]	90/ /317	90/ /317	–	half-life [2]: ≥ 1 h; half-life [3]: ≥ 1 h
Clc1ccc2c(NCCNCc3cccnc3)ccnc2c1 [compound 18, N-(7-Chloroquinolin-4-yl)-N'-(pyridin-3-ylmethyl)ethane-1,2-diamine]	426/1796/882	426/1796/882	426/1796/882	–
C=C[C@H]1C[N@@]2CC[C@H]1C[C@H]2[C@H](O)c1ccnc2ccc(OC)cc12 [Quinine]	–	–	–	BoNT/A LC inhibition (in words) [7]: poor inhibitors
COc1ccc(CNCCCNc2ccnc3cc(Cl)ccc23)cc1 [compound 11, N-(7-Chloroquinolin-4-yl)-N'-(4-methoxybenzyl)propane-1,3-diamine]	86/778/95	86/778/95	86/778/95	IC50 [6]: < 9 nM
Clc1ccc2c(NCCNCc3ccccc3)ccnc2c1 [compound 6, N-Benzyl-N'-(7-chloroquinolin-4-yl)ethane-1,2-diamine]	–	–	–	IC90 ([1]; Plasmodium falciparum, W2, read-out: antimalarial activity IC90, CQR W2): 14.1 nM; inhibition at 20 µM [4]: > 50%; IC50 [6]: < 9 nM
Fc1ccc(CNCCCNc2ccnc3cc(Cl)ccc23)cc1 [compound 13, N-(7-Chloroquinolin-4-yl)-N'-(4-fluorobenzyl)propane-1,3-diamine]	110/415/185	110/415/185	110/415/185	–
C=C[C@H]1C[N@@]2CC[C@H]1C[C@@H]2[C@@H](O)c1ccnc2ccc(OC)cc12 [Quinidine]	–	–	–	BoNT/A LC inhibition (in words) [7]: poor inhibitors
COc1ccncc1CNCCCNc1ccnc2cc(Cl)ccc12 [compound 23, N-(7-Chloroquinolin-4-yl)-N'-[(4-methoxypyridin-3-yl)methyl]propane-1,3-diamine]	57/1040/93	57/1040/93	57/1040/93	half-life [2]: ≥ 1 h; half-life [3]: ≥ 1 h; IC50 [6]: < 9 nM
Clc1ccc2c(NCCCNCc3ccncc3)ccnc2c1 [compound 17, N-(7-Chloroquinolin-4-yl)-N'-(pyridin-4-ylmethyl)propane-1,3-diamine]	176/4146/469	176/4146/469	176/4146/469	IC50 [6]: < 9 nM
COc1ccncc1CNCCNc1ccnc2cc(Cl)ccc12 [compound 22, N-(7-Chloroquinolin-4-yl)-N'-[(4-methoxypyridin-3-yl)methyl]ethane-1,2-diamine]	435/4000/588	435/4000/588	435/4000/588	–
NCCNc1ccnc2cc(Cl)ccc12 [compound 4, N1-(7-chloroquinolin-4-yl)ethane-1,2-diamine]	–	–	–	BoNT/A LC inhibition (in words), tested as fragments [7]: poor BoNT/A LC inhibitors
Clc1ccc2c(NCCCNCc3ccc(Br)cc3)ccnc2c1 [compound 15, N-(4-Bromobenzyl)-N'-(7-chloroquinolin-4-yl)propane-1,3-diamine]	–	–	–	half-life [2]: ≥ 1 h; half-life [3]: ≥ 1 h
CC(C)(C)c1ccc(CNCCNc2ccnc3cc(Cl)ccc23)cc1 [compound 8, N-(4-Tert-butylbenzyl)-N'-(7-chloroquinolin-4-yl)ethane-1,2-diamine]	245/429/419	245/429/419	245/429/419	–
Clc1ccc2c(NCCNCc3ccc(Br)cc3)ccnc2c1 [compound 14, N-(4-Bromobenzyl)-N'-(7-chloroquinolin-4-yl)ethane-1,2-diamine]	695/1606/660	695/1606/660	695/1606/660	half-life [2]: ≥ 1 h; half-life [3]: ≥ 1 h
CCN(CC)CCCC(C)Nc1c2ccc(Cl)cc2nc2ccc(OC)cc12 (centres unmarked) [Quinacrine]	–	–	–	BoNT/A LC inhibition (in words) [7]: poor inhibitors
